Test results published in ChEMBL document CHEMBL1134021, “Thienopyridines: nitric oxide synthase inhibitors with potent in vivo activity” (Bioorg Med Chem Lett, 2001).

Tests used:
Nitric oxide synthase 1 = Nitric oxide synthase 1 (Rattus norvegicus, UniProt P29476); test: Ability to inhibit the conversion of [3H]-L-Arg to [3H]L-citrulline catalyzed by n-NOS from rat cerebellum; assay type: functional, tissue-based
[1] = target: Nitric oxide synthase, inducible (Homo sapiens, UniProt P35228); test: Ability to inhibit the conversion of [3H]L-Arg to [3H]L-citrulline catalyzed by i-NOS from human DLD-1 cells; assay type: functional, cell-based
Nitric oxide synthase 3 = target: T1, Nitric oxide synthase 3 (Homo sapiens, UniProt P29474); test: Ability to inhibit the conversion of [3H]L-Arg to [3H]L-citrulline catalyzed by e-NOS from HUVEC cells; assay type: functional, cell-based
T1 sequence (P29474 whole entry): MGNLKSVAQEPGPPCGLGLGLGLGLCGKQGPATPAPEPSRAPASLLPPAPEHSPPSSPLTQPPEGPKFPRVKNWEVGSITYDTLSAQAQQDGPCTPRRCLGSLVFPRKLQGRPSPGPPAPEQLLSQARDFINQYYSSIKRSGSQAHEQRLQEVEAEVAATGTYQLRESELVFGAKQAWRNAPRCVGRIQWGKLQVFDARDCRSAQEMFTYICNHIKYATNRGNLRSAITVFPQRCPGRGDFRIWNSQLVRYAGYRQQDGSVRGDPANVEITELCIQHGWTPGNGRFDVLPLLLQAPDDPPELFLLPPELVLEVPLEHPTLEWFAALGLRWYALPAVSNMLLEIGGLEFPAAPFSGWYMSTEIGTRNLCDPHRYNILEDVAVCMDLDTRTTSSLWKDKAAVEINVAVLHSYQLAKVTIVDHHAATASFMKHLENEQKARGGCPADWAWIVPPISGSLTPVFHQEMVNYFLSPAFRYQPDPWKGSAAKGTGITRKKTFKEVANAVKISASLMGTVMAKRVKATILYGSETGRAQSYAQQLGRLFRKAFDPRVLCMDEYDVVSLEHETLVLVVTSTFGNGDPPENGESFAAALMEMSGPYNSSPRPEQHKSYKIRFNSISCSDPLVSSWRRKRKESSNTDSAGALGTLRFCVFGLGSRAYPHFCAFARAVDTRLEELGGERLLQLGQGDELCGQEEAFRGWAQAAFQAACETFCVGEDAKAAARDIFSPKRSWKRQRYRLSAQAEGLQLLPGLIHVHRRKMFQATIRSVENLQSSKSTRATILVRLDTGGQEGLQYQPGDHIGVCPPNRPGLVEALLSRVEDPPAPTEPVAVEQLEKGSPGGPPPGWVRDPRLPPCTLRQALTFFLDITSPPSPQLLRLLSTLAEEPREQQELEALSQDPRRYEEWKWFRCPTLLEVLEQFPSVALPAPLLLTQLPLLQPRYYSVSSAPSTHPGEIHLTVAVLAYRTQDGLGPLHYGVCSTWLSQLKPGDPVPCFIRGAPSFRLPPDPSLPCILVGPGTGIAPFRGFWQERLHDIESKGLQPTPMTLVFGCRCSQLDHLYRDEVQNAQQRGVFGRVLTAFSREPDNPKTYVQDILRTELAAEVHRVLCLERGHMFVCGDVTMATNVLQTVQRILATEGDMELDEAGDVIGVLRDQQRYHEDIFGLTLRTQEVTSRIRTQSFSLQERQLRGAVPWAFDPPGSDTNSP

DLD-1 = test: Concentration required to inhibit nitric oxide synthesis in DLD-1 cells; assay type: functional, cell-based; details: Homo sapiens
Rattus norvegicus [2] = test: In vivo inhibition of iNOS is determined from the inhibition of LPS-induced nitrite production measured in rat blood plasma at 800 umol/kg for 15 min; assay type: functional; details: 0.25 h
Rattus norvegicus [3] = test: Dose required for half maximal increase in mean arterial blood pressure of 40 mmHg after 15 min in anaesthetised rats, as a measure of eNOS activity; assay type: functional
HUVEC = test: Ability to inhibit the conversion of [3H]L-Arg to [3H]L-citrulline catalyzed by e-NOS from HUVEC cells at 100 uM concentration; assay type: functional; details: Homo sapiens
Rattus norvegicus [4] = test: In vivo inhibition of iNOS is determined from the inhibition of LPS-induced nitrite production measured in rat blood plasma at 3.2 umol/kg for 15 min; assay type: functional; details: 0.25 h

Chain of Nitric oxide synthase 1 (P29476 whole entry): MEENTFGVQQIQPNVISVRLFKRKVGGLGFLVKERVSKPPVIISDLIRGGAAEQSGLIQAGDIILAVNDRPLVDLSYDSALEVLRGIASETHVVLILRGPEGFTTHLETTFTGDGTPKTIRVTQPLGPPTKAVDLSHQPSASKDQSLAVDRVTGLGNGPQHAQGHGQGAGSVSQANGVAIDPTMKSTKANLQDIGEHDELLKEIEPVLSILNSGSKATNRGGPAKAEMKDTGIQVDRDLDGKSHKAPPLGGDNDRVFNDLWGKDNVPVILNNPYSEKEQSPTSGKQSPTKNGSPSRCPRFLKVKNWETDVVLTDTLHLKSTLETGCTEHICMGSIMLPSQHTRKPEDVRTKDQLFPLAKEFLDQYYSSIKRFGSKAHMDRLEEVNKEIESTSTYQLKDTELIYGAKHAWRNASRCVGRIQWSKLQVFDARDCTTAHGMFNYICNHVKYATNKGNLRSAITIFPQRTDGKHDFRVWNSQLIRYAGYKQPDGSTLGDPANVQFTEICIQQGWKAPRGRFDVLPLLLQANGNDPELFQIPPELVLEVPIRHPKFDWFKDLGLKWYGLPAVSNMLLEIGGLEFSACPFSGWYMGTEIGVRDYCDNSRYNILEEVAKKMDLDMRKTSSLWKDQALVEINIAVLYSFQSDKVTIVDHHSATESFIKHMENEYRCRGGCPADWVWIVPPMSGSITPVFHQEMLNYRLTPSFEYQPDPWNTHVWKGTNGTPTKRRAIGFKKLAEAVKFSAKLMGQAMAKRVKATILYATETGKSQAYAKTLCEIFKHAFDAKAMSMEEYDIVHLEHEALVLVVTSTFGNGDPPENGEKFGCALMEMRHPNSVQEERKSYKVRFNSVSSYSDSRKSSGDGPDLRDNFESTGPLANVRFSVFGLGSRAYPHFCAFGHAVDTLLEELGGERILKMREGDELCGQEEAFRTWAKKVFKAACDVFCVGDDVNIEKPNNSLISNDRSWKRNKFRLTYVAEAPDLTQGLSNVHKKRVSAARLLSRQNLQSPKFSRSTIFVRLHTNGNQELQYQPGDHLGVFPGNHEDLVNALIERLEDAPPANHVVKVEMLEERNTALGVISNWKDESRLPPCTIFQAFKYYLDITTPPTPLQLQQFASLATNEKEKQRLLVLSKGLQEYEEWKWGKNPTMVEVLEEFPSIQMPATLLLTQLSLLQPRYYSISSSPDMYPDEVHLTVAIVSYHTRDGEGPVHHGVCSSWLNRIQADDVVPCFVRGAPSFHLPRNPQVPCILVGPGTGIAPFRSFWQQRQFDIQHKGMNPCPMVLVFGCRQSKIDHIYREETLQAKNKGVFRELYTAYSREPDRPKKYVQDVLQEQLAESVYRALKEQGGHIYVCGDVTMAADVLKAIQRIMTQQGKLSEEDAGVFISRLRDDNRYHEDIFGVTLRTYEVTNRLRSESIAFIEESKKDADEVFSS
Chain of Nitric oxide synthase, inducible (P35228 whole entry): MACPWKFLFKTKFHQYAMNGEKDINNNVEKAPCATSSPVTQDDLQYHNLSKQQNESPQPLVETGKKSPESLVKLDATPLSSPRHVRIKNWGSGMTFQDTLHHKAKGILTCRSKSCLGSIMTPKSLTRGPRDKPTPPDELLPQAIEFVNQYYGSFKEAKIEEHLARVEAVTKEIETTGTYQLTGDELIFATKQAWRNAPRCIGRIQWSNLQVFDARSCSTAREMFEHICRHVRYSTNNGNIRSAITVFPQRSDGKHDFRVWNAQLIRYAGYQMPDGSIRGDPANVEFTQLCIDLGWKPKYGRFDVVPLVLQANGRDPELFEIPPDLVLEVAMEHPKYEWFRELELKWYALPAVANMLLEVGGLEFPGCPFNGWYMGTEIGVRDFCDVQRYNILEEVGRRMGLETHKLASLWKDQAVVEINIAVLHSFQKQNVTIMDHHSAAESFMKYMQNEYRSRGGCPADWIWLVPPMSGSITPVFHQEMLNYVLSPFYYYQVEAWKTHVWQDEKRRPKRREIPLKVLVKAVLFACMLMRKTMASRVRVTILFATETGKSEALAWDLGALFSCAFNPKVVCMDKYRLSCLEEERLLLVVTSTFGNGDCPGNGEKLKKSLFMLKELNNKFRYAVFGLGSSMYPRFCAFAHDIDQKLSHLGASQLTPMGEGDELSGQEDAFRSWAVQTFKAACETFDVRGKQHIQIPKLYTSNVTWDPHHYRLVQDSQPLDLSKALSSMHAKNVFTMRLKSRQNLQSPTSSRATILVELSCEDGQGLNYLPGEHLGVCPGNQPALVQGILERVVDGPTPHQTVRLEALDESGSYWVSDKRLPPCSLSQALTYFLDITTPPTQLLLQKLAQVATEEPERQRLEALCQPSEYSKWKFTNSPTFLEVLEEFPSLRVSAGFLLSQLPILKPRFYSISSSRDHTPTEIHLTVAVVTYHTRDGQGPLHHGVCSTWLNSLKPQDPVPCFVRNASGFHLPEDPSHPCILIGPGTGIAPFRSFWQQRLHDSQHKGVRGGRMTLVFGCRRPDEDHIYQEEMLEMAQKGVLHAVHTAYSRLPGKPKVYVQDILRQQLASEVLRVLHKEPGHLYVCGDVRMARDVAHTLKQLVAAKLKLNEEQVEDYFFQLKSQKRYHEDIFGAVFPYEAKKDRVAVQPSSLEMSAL

| Compound | IC50 (Nitric oxide synthase 1) | IC50 [1] | IC50 (Nitric oxide synthase 3) | IC50 (DLD-1) | ED50 (Rattus norvegicus [2]) | Dose (Rattus norvegicus [3]) | inhibition at 100 µM (HUVEC) | ED50 (Rattus norvegicus [4]) |
| --- | --- | --- | --- | --- | --- | --- | --- | --- |
| NC1=NC(c2ccccc2)Cc2ccsc21 (stereo not given) | 140 nM | 8300 nM | 4000 nM | – | – | – | – | – |
| NC1=NC(c2cccnc2)Cc2ccsc21 (stereo not given) | 260 nM | 2800 nM | – | – | – | – | – | – |
| C#CC1Cc2cc(C)sc2C(N)=N1 (stereo not given) | 910 nM | 3500 nM | 10000 nM | – | – | – | – | – |
| NC1=NCCc2sccc21 | 100 nM | 1600 nM | – | – | – | – | – | – |
| NC1=NC(c2ccccc2)Cc2sccc21 (stereo not given) | 740 nM | 2700 nM | 9500 nM | – | – | – | – | – |
| C#CC1Cc2ccsc2C(N)=N1 (stereo not given) | 6 nM | 40 nM | 80 nM | 5800 nM | – | – | – | – |
| CNC(=N)NCCCC(N)C(=O)O (single isomer, unassigned) [TILARGININE] | – | – | – | 170000 nM | 100 µmol/kg | 100 µM/kg | – | – |
| NC1=NC(C#Cc2ccccc2)Cc2ccsc21 (stereo not given) | 4100 nM | 28000 nM | – | – | – | – | < 25% | – |
| NC1=NC(C2CC2)Cc2sccc21 (stereo not given) | 18 nM | 190 nM | 750 nM | 8700 nM | – | – | – | – |
| CC#CC1Cc2ccsc2C(N)=N1 (stereo not given) | 80 nM | 150 nM | 5000 nM | 34000 nM | – | – | – | – |
| NC1=NCCc2ccsc21 | 550 nM | 730 nM | 280 nM | – | – | – | – | – |
| CC(C)(C)C#CC1Cc2ccsc2C(N)=N1 (stereo not given) | 10000 nM | 3600 nM | – | – | – | – | < 25% | – |
| NC1=NC(C2CC2)Cc2ccsc21 (stereo not given) | 11 nM | 51 nM | 50 nM | 3600 nM | – | – | – | – |
| NC1=NC(c2cccs2)Cc2ccsc21 (stereo not given) | 50 nM | 150 nM | 1900 nM | 9200 nM | – | – | – | – |
| C#CC1Cc2sccc2C(N)=N1 (stereo not given) | 25 nM | 110 nM | 120 nM | 15000 nM | – | – | – | – |
| NC1=NC(c2ccco2)Cc2ccsc21 (stereo not given) | 40 nM | 89 nM | 920 nM | 2200 nM | – | 0.4 µM/kg | – | 0.4 µmol/kg |
